We go through 6 compounds from paper PMC6269876, “Pancreatic Lipase Inhibitory Gallotannins from Galla Rhois with Inhibitory Effects on Adipocyte Differentiation in 3T3-L1 Cells” (Molecules, 2013).

The target in experiment [1] is T1, porcine pancreatic lipase (Sus scrofa, UniProt P00591).
T1 construct: purchased Sigma, St. Louis, MO, USA
T1 sequence (P00591 1-450): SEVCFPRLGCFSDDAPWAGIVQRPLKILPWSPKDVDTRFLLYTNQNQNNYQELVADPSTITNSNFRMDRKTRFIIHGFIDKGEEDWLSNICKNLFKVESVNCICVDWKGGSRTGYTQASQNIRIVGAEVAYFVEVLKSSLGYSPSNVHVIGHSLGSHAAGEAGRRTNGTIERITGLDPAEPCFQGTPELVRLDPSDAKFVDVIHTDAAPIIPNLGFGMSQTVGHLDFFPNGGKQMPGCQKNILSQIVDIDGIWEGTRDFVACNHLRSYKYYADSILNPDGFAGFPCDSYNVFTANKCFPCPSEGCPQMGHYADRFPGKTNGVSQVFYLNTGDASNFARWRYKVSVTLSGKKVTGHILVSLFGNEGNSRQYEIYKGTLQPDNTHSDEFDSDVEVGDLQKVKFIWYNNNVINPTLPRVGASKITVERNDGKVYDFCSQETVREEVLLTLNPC
The experiment can be described thus: Pancreatic lipase activity assay (p-nitrophenylbutyrate hydrolysis). The format is biochemical. The following applies: for IC50: mean ± SD of three replicates, regression analysis, read-out: Pancreatic lipase inhibitory activity IC50. The protocol:
A previously reported method, with a minor modification, was used for evaluation of the ability of the compounds to inhibit porcine pancreatic lipase. Briefly, an enzyme buffer was prepared by addition of 30 μL (10 units) of a solution of porcine pancreatic lipase (Sigma, St. Louis, MO, USA) in 10 mM morpholinepropanesulphonic acid (MOPS) and 1 mM EDTA (pH 6.8) to 850 μL of Tris buffer (100 mM Tris-HC1 and 5 mM CaCl2, pH 7.0). […] Inhibition of lipase activity was expressed as the percentage decrease in the optical density (OD) when porcine pancreatic lipase was incubated with the test compounds.

A further experiment deals with 3T3-L1 cells. The experiment can be described thus: Assay of adipocyte differentiation in 3T3-L1 cells (Oil Red O staining). The format is cell-based. The following applies: Mus musculus, 3T3-L1, 50 μM, treated throughout the differentiation period; read-out: Inhibition of lipid deposition (lipid accumulation). The protocol: Of particular interest, a certain degree of galloylation on the glucose moiety of these active molecules appears to be required for potent inhibitory activity. […] The non-toxic concentrations of the tested compounds were established in 3T3-L1 preadipocytes using concentrations of 50, 25, and 10 μM. After two days of incubation, an MTT assay was performed for measurement of cell viability; according to the results, no cytotoxic effect was detectable for any of the tested compounds in concentrations up to 50 μM. […] 3T3-L1 mouse embryo fibroblasts were cultured in DMEM supplemented with 10% FBS until reaching confluence. Two days after reaching confluence (day 0), to initiated differentiation, cells were stimulated with differentiation medium containing DMEM with 10% FBS, 0.5 mM 3-isobutyl-1-methylxanthine, 1 μM insulin and 1 μM dexamethasone for two days (day 2). […] All media contained 100 IU/mL penicillin and 100 μg/mL streptomycin. Cells were maintained at 37 °C in a humidified atmosphere of 95% air-5% CO2. Throughout the culture period (days 0–8), the cultures were treated with test samples for general experiments, with a slight modification. […] For quantitative analysis, Oil Red O staining was dissolved with isopropyl alcohol and optical density was measured at 500 nm using an ELISA plate reader.

As for `C[C@H]1O[C@H](C)[C@@H](O)C2=C1C(=O)c1c(O)cc(O)c(-c3c4c(c(O)c5c(O[C@@H]6O[C@H](CO)[C@@H](O)[C@H](O)[C@H]6O)cc(O)cc35)[C@@H](C)O[C@H](C)[C@H]4O)c1C2=O` [Compound 1, protoaphin-fb], the IC50 in experiment [1] was 30.6 ± 2.4 µM.

`O=C(OC[C@H]1O[C@@H](OC(=O)c2cc(O)c(O)c(O)c2)[C@H](OC(=O)c2cc(O)c(O)c(OC(=O)c3cc(O)c(O)c(O)c3)c2)[C@@H](OC(=O)c2cc(O)c(O)c(O)c2)[C@@H]1OC(=O)c1cc(O)c(O)c(O)c1)c1cc(O)c(O)c(O)c1` [Compound 2, 2-O-digalloyl-1,3,4,6-tetra-O-galloyl-β-D-glucose]: the IC50 in experiment [1] was 3.5 ± 0.5 µM. The inhibition at 50 µM with 3T3-L1 cells was found to be 64%.

As to `O=C(OC[C@H]1O[C@@H](OC(=O)c2cc(O)c(O)c(O)c2)[C@H](OC(=O)c2cc(O)c(O)c(O)c2)[C@@H](OC(=O)c2cc(O)c(O)c(O)c2)[C@@H]1OC(=O)c1cc(O)c(O)c(O)c1)c1cc(O)c(O)c(O)c1` [Compound 3, 1,2,3,4,6-penta-O-galloyl-β-D-glucose], in experiment [1], the IC50 came to 15.9 ± 1 µM.

On to `O=C(OC[C@H]1O[C@@H](OC(=O)c2cc(O)c(O)c(O)c2)[C@H](OC(=O)c2cc(O)c(O)c(O)c2)[C@@H](O)[C@@H]1OC(=O)c1cc(O)c(O)c(O)c1)c1cc(O)c(O)c(O)c1` [Compound 4, 1,2,4,6-tetra-O-galloyl-β-D-glucose], for which the half-inhibitory concentration (IC50) in experiment [1] was found to be 23.2 ± 1.8 µM.

`COC(=O)c1cc(O)c(O)c(O)c1` [Compound 6, methylgallate]: in experiment [1], the “Pancreatic lipase inhibition, result in words” value was “inactive” and the half-inhibitory concentration (IC50) is > 300 µM.

Consider `O=C(O)c1cc(O)c(O)c(O)c1` [Compound 7, gallic acid], for which, in experiment [1], the “Pancreatic lipase inhibition, result in words” value is “inactive” and the 50% inhibitory concentration (IC50) was > 300 µM.
